Each structure is given as a SMILES string.

Data on one molecule can be found in ChEMBL document CHEMBL3639310, “Substituted dihydropyrazolones and their use” (2013).

The experiment addresses Egl nine homolog 1 (Homo sapiens, UniProt Q9GZT9). Put plainly: In Vitro Inhibition Assay: In vitro tests for determination of the activity and selectivity of HIF prolyl 4-hydroxylase inhibitors. Hydroxylated HIF bonds specifically to the von Hippel-Lindau protein-elongin B-elongin C complex (VBC complex). This interaction occurs only if HIF is hydroxylated on a conserved prolyl radical. It is the basis for the biochemical determination of HIF prolyl hydroxylase activity. The test is carried out as described [Oehme F., Jonghaus W., Narouz-Ott L., Huetter J., Flamme I., Anal. Biochem. 330 (1), 74-80 (2004)].

Egl nine homolog 1, sequence (Q9GZT9 whole entry, looked up): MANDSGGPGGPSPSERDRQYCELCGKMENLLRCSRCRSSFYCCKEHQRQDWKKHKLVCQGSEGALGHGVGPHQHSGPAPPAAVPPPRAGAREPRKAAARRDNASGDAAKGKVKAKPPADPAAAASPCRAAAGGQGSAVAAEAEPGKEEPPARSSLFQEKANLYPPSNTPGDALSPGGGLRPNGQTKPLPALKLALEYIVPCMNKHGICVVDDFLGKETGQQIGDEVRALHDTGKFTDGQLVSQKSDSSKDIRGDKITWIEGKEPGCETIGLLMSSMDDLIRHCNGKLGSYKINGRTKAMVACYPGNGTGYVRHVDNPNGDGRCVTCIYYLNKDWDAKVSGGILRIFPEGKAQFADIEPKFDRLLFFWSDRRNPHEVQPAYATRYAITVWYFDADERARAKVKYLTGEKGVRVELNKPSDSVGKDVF

One may read the IC50 as the concentration needed to halve the response being measured. The molecule `N#Cc1cn(-c2c[nH]n(-c3cc(N4CC(F)(F)C4)ncn3)c2=O)cn1` returned an IC50 of 90 nM.
